Source: patent US20210088529A1, “USE OF QUINALDINE RED AND DERIVATIVES THEREOF IN PREPARATION OF KIT FOR DETECTING AMYLOID FIBRILS” (Jilin University, priority 2019, published 2021)

Columns and labels:
bovine insulin fibrils [1] = target: T1, bovine insulin fibrils (Bos taurus, UniProt P01317); assay: Fluorescence response (identification) of bovine insulin fibrils by the dye; format: binding; conditions: for identification of bovine insulin fibril (fluorescence intensity, dye comparison): 0.05 ml dye + 0.05 ml fibrils, diluted with PBS to 1 ml; for identification effect on bovine insulin fibrils (fluorescence intensity): dye 0.2 mM, dye-insulin 0.025 mM, dye-insulin fibril 0.025 mM, FIG. 3A / FIG. 7
T1 sequence (P01317 25-54 limits assumed): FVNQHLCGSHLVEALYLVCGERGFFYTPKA
T1 sequence (P01317 85-105 limits assumed): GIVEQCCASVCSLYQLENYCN
Experimental: 2) The bovine insulin fibrils were diluted with PBS to 0 μm, 1 μm, 3 μm, 5 μm, 10 μm, 20 μm and 30 μm respectively. Then the diluted samples were each added with 0.05 mL of […] (1 mM) solution, and tested in a fluorescence spectrometer for the fluorescence intensity (λex=440 nm). […] The results are shown in FIG. 1, where FIG. 1-A was the detection limit of QR on the bovine insulin fibrils; and FIG. 1-B was a linear interval for QR identification of the bovine insulin fibrils.
QR (0.2 mM), QR-insulin (0.025 mM) and QR-insulin fibril (0.025 mM) were determined for fluorescence intensities respectively.
(§1) 0.05 ml of each of QR, ThT, ThS and NR solutions was taken, then added with 0.05 ml of the bovine insulin fibrils, diluted with 0.9 ml of PBS to 1 ml, and then determined for the fluorescence intensity.
The fluorescence intensities of 4-(4-dimethylaminostyryl)quinoline (0.2 mM), 4-(4-dimethylaminostyryl)quinoline-insulin (0.025 mM) and 4-(4-dimethylaminostyryl)quinoline-insulin fibrils (0.025 mM) were determined respectively.

[2] = target: bovine insulin amyloid fibrils (Bos taurus, UniProt P01317); assay: Monitoring the kinetic process of bovine insulin fibrillation by fluorescence; conditions: 0.5 mM insulin in NaCl/HCl pH 1.6, samples at different time points, QR 1 mM 0.05 mL; FIG. 3B
Chain of bovine insulin amyloid fibrils (P01317 25-54 limits assumed): as the sequence (P01317 25-54 limits assumed) above
Experimental: As the mechanism of amyloid fibril-related disease was still being explored, and the kinetic process of the amyloid fibrils might provide relevant information for the mechanism, the kinetic process of the formation of the bovine insulin amyloid fibrils was monitored with QR. […] Three duplicate samples were made for each group of samples, and all of the above samples were determined on a fluorescence spectrometer for fluorescence intensities.

lysozyme fibrils = lysozyme fibrils (Gallus gallus, UniProt P00698); assay: Fluorescence identification of lysozyme fibrils; format: binding; conditions: lysozyme 0.1 mM fibrillated at 65° C. for 180 min; FIG. 3C
Chain of lysozyme fibrils (P00698 19-147): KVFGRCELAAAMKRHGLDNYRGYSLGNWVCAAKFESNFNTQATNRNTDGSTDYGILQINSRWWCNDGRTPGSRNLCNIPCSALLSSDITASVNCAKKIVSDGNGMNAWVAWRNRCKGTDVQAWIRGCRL
Experimental: Formulation of a glycine/NaCl buffer solution: the pH value of the glycine/NaCl aqueous solution was adjusted to 2.0 with HCl, where the concentration of sodium chloride was 80 mM and the concentration of glycine was 70 mM.
The lysozyme (0.1 mM) was dissolved in a glycine/NaCl buffer solution for fibrillation at 65° C. under magnetic stirring at a rotation rate of 220 rmp for 180 min. The fluorescence intensities of QR, QR-lysozyme and QR-lysozyme fibrils were determined respectively.

lysozyme amyloid fibrils = lysozyme amyloid fibrils (Gallus gallus, UniProt P00698); assay: Monitoring the kinetic process of lysozyme fibrillation by fluorescence; conditions: lysozyme 0.1 mM in glycine/NaCl pH 2.0, samples at different time points; FIG. 3D
Chain of lysozyme amyloid fibrils (P00698 19-147): as above
Experimental: The kinetic process of the formation of the lysozyme amyloid fibrils was monitored with QR. […] Three duplicate samples were made for each group of samples, and all of the above samples were determined on a fluorescence spectrometer for fluorescence intensities.

bovine insulin [3] = target: T2, bovine insulin (Bos taurus, UniProt P01317); assay: Isothermal titration calorimetry (ITC) of dyes with bovine insulin; format: binding; conditions: 25° C., insulin 0.25 mM, dyes 0.01 mM, FIG. 4
T2 sequence (P01317 25-54 limits assumed): as the sequence (P01317 25-54 limits assumed) above
Experimental: Isothermal titration calorimetry (ITC): the bovine insulin was diluted to a final concentration of 0.25 mM, the QR, ThT, ThS, NR were each diluted to a final concentration of 0.01 mM, and then the aforementioned dyes were titrated with the bovine insulin at 25° C., where the dye was added dropwise into a sample chamber containing a solution of the bovine insulin through an automatically-controlled rotary syringe. At the same time, a blank test was carried out, where dye solutions with equal concentration and equal volume were added dropwise into ultra-pure water, and dilution heat was deducted to obtain a binding constant.

bovine insulin fibrils [4] = target: T1, bovine insulin fibrils; assay: QR replacement of a conventional probe bound to bovine insulin fibrils; format: binding; conditions: ThS or NR bound first, then QR added, FIGS. 5B-5D
Experimental: as §1
Since the binding constant of binding between QR and the bovine insulin is the largest, ThT, ThS, and NR were first used to bind to the bovine insulin fibrils for fluorescence determination, then QR was added for a replacement reaction.

insulin fibril = insulin fibril (Bos taurus, UniProt P01317); assay: Photobleaching experiment under ultraviolet light (365 nm); format: physicochemical, bovine; conditions: UV 365 nm, insulin fibril 0.025 mM, dyes 0.05 mm, measured every 30 minutes; FIG. 6
Chain of insulin fibril (P01317 25-54 limits assumed): as above
Experimental: A photobleaching experiment was carried out under ultraviolet light (365 nm). An insulin fibril (0.025 mM) was mixed with QR, ThT, ThS and NR respectively, with the concentrations of all dyes being 0.05 mm. The mixtures were placed under an ultraviolet lamp (365 nm) and measured for fluorescence every 30 minutes.

bovine insulin [5] = target: T2, bovine insulin; assay: Raman (SERS) study of the manner of binding between QR and bovine insulin; conditions: SERS on silver sol, 532 nm, QR 0.01 mM, bovine insulin 0.01 mM; FIG. 2
Experimental: The manner of binding between QR and the bovine insulin was studied by using a Raman spectrometer with an excitation line of a laser model of 532 nm. First, a silver sol was synthesized as a SERS (surface-enhancement raman scattering) substrate. The synthesized silver nanoparticles were respectively added with the bovine insulin (0.01 mM), QR (0.01 mM) and a mixed sample of them, for detection.

Compound | identification of bovine insulin fibril (fluorescence intensity, dye comparison) (bovine insulin fibrils [1]; FIG. 5-A) | identification effect on bovine insulin fibrils (fluorescence intensity) (bovine insulin fibrils [1]) | fluorescence intensity of dye + insulin fibrils with increase of the illumination time (photostability) (insulin fibril) | further results
CC[n+]1c(/C=C/c2ccc(N(C)C)cc2)ccc2ccccc21 [QR, quinaldine red] | could well identify the bovine insulin fibril | good identification effect | remained basically unchanged | linear range of fluorescence response to bovine insulin fibrils (bovine insulin fibrils [1]; fibrils diluted with PBS to 0-30 μm, fluorescence spectrometer, FIG. 1): 0-30 μm; fluorescence intensity compared with the other dyes (bovine insulin fibrils [1]; red light region, FIG. 5-A): certain advantages of the fluorescence intensity in the red light region; detection of the dynamic process of bovine insulin fibrillation [2]: could well detect the dynamic process of bovine insulin fibrillation; identification effect on lysozyme fibrils (fluorescence intensity) (lysozyme fibrils): good identification effect; detection of the dynamic process of lysozyme fibrillation (lysozyme amyloid fibrils): could well detect the dynamic process of lysozyme fibrillation; binding constant of binding with the bovine insulin (comparison among dyes) (bovine insulin [3]): largest binding constant; replacement of ThT, ThS, NR bound to bovine insulin fibrils (bovine insulin fibrils [4]): replacement effect was obvious; Raman signal between 900-1100 cm-1 (bovine insulin [5]): the signal for QR-insulin was disappeared
Thioflavin S [ThS, reference compound] | could well identify the bovine insulin fibril |  | decreased significantly | 
CCN(CC)c1ccc2nc3c4ccccc4c(=O)cc-3oc2c1 [NR, nile red, reference compound] | could well identify the bovine insulin fibril |  | decreased significantly | 
Cc1ccc2c(c1)sc(-c1ccc(N(C)C)cc1)[n+]2C.[Cl-] [ThT, Thioflavin T, reference compound] | could well identify the bovine insulin fibril |  | decreased significantly | 
CN(C)c1ccc(C=Cc2ccnc3ccccc23)cc1 [4-(4-dimethylaminostyryl)quinoline] |  | good identification effect |  | 
